Source: PubChem BioAssay (NCI)
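Compound exposure: 48 hours, 5 concentrations, 96-well plates. GI50 is the concentration that inhibits growth by half. TGI is the concentration that stops growth completely.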

test system: UO-31 renal; assay: NCI-60 cell line screen, 48 h

How did the TGI turn out when `CCOc1ccccc1NC(=O)CC(C(=O)OC)C(=O)C(=O)OC` (configuration not stated) was run?
The TGI was greater than 100 µM.

With `COC(=O)C1=C(C)N(NC(=O)OC(C)(C)C)C(=O)C1=P(c1ccccc1)(c1ccccc1)c1ccccc1` as the compound, how does the TGI read?
The TGI was greater than 100 µM.

With `O=C1OC(c2ccccc2)=N/C1=C\c1cccc2ccccc12` as the compound, how does the TGI read?
Its TGI is greater than 100 µM.

Which TGI does the source give for `Cc1cccc(NC(=O)/C(=N\NC(C)(C)C)C2NC(=S)NC2=O)c1C` (configuration not stated) here?
Its TGI is greater than 100 µM.

For `C[C@@H]1CC(=O)C2CCCC1C2=O` (some centres not stated), which TGI is on record?
The TGI was greater than 100 µM.

`c1ccc(CNn2nnc3ccccc32)cc1` was tested. Which TGI did it give?
Its TGI is greater than 100 µM.

How did the TGI turn out when `CN1c2ccc(Cl)cc2C(=O)NC1c1ccc([N+](=O)[O-])s1` (configuration not stated) was run?
The TGI was 26.5 µM.

With `Oc1cccnc1CN1CCCCC1` as the compound, how does the TGI read?
Its TGI is greater than 100 µM.

test system: SK-MEL-28 melanoma; assay: NCI-60 cell line screen, 48 h

How did the TGI turn out when `Cc1nc(N)sc1C(=O)/C=C\c1ccc2c(c1)OCO2` was run?
The TGI was greater than 100 µM.

What does the source list for `CN1CCN(CCCOc2ccc3nc(Nc4ccc(Cl)c(C(F)(F)F)c4)ccc3c2)CC1`?
GI50: 13.8 µM; TGI: 29.2 µM

With `CC1(C)SCc2nc3ncccc3n21` as the compound, how does the TGI read?
The TGI was greater than 100 µM.

With `Cn1c(=O)c(C(c2ccc([N+](=O)[O-])cc2)c2c(O)c3ccccc3n(C)c2=O)cc2ccccc21` (configuration not stated) as the compound, how does the TGI read?
The TGI was greater than 100 µM.

How did the TGI turn out when `Cc1cn(C2CC(O)C(CO)O2)c(=O)n2nnnc12` (configuration not stated) was run?
Its TGI is greater than 100 µM.

Which TGI does the source give for `COc1ccc(C(=O)C(C(=O)CCC(=O)Nc2cccc(Cl)c2)c2ccc(OC)cc2)cc1` (configuration not stated) here?
Its TGI is greater than 100 µM.

Which TGI does the source give for `COc1cc(C=C2C(=O)NC(=O)NC2=O)cc(OC)c1OC` here?
Its TGI is greater than 100 µM.

How did the TGI turn out when `Nn1c(=O)n(Cc2ccccc2)n(-c2ccccc2)c1=O` was run?
The TGI was greater than 100 µM.

`OC[C@H]1CCCC1O` (some centres not stated) was tested. Which TGI did it give?
The TGI was greater than 100 µM.

What does the source list for `Cc1cc(C(=O)Nc2ncc(Cc3cccc(C(F)(F)F)c3)s2)c2ccccc2n1`?
GI50: 0.79 µM; TGI: > 100 µM

For `Cc1ccc(C2=C(c3ccccc3)C(Br)(c3ccc(C)cc3)C(c3ccccc3)=C2c2ccc(C)cc2)cc1`, which TGI is on record?
Its TGI is greater than 100 µM.

With `N#CCN1C(=O)c2cccc3cc([N+](=O)[O-])cc(c23)C1=O` as the compound, how does the TGI read?
Its TGI is greater than 100 µM.

`O=C1CCN2C(=O)CCN12` was tested. Which TGI did it give?
Its TGI is greater than 100 µM.

What does the source list for `O=C1OC(C(O)CO)C(=O)C1=O` (configuration not stated)?
GI50: > 10000 µM; TGI: > 10000 µM

Which results are given for `C=C1C(=O)O[C@H]2[C@H]1CC/C(COC(=O)C(=O)c1cn(Cc3ccccc3)c3ccccc13)=C\CC[C@@]1(C)O[C@@H]21`?
GI50: 2.08 µM; TGI: 4.98 µM

`Clc1nc(Cl)c(Cl)c(-c2ccccc2)n1` was tested. Which TGI did it give?
Its TGI is 32.8 µM.

With `CC1CC[C@]2(C(=O)O)CCC3(C)C(=CC(=O)C4[C@@]5(C)CCC(=O)C(C)(C)C5CC[C@]43C)[C@@H]2[C@H]1C` (some centres not stated) as the compound, how does the TGI read?
The TGI was 42.9 µM.

With `COC(C(O)CO)C(O)C(O)C(=O)NNc1ccccc1` (configuration not stated) as the compound, how does the TGI read?
Its TGI is greater than 100 µM.

How did the TGI turn out when `CC(C)C(Nc1c2ccccc2nc2ccccc12)C(=O)O` (configuration not stated) was run?
Its TGI is greater than 100 µM.

`COc1ccccc1CCc1cc(OC)c(OC)c(OC)c1` was tested. Which TGI did it give?
Its TGI is greater than 100 µM.

Which TGI does the source give for `COc1cc2c(cc1OC)C(CC(=O)NN=C(C)C)NCC2` (configuration not stated) here?
The TGI was greater than 100 µM.

How did the TGI turn out when `COC(=O)/C(=N\Nc1nnc(C)n1N)C(C#N)c1ccc(Cl)cc1` (configuration not stated) was run?
The TGI was greater than 100 µM.

With `Cc1cccc(NC(=O)C(=O)C(C(=O)c2ccc3ccccc3c2)C2OC(=O)c3ccccc32)c1C` (configuration not stated) as the compound, how does the TGI read?
The TGI was 39 µM.

With `CS/C(N)=N\NC(=O)CCC(=O)Nc1ccccc1C(F)(F)F` as the compound, how does the TGI read?
The TGI was greater than 100 µM.

With `CC(C)(C)c1ccc2c(c1)S(=O)(=O)Nc1ccccc1NS(=O)(=O)c1cc(C(C)(C)C)ccc1OCCOCCOCCO2` as the compound, how does the TGI read?
Its TGI is greater than 100 µM.

`CC(=O)[O-].CCN(CC)c1ccc(C=NCCN=Cc2ccc(N(CC)CC)cc2[O-])c([O-])c1.[Mn+3]` was tested. Which GI50 did it give?
Its GI50 is 19.2 µM.

What about the TGI of the same compound?
Its TGI is 37.8 µM.

For `NC(N)=N/N=C(\c1nc2ccc([N+](=O)[O-])cc2[nH]c1=O)C(O)c1ccc([N+](=O)[O-])cc1` (configuration not stated), which TGI is on record?
Its TGI is greater than 100 µM.

Which results are given for `CCC[CH2][Sn]1([CH2]CCC)[O]CC(CN2CCCC2)[O]1` (configuration not stated)?
GI50: 19 µM; TGI: 34.9 µM

For `CC1(C)C(=O)N(CCCCCCN2C(=O)C(C)(C)c3ccccc32)c2ccccc21`, which TGI is on record?
The TGI was greater than 100 µM.

How did the TGI turn out when `NCCCCN(CCCN)/[N+]([O-])=N\O` was run?
Its TGI is greater than 100 µM.

What does the source list for `CCOC(=O)c1c(C)n(Cc2ccc(Cl)cc2Cl)c2c1c(CN(C)C)c(O)c1[nH]cnc12`?
GI50: 20.9 µM; TGI: 41 µM

Which TGI does the source give for `CCOc1ccccc1NC(=O)CC(C(=O)OC)C(=O)C(=O)OC` (configuration not stated) here?
Its TGI is greater than 100 µM.

With `CN1C(=O)c2cccc3cc([N+](=O)[O-])cc(c23)C1=O` as the compound, how does the TGI read?
Its TGI is greater than 10 µM.

For `O=C1OC(c2ccccc2)=N/C1=C\c1cccc2ccccc12`, which TGI is on record?
Its TGI is greater than 100 µM.

How did the TGI turn out when `C[C@@H]1CC(=O)C2CCCC1C2=O` (some centres not stated) was run?
The TGI was greater than 100 µM.

With `c1ccc(CNn2nnc3ccccc32)cc1` as the compound, how does the TGI read?
Its TGI is greater than 100 µM.

`CN1c2ccc(Cl)cc2C(=O)NC1c1ccc([N+](=O)[O-])s1` (configuration not stated) was tested. Which TGI did it give?
The TGI was 43.7 µM.
